# Results as given in patent publication US7928121B2, “5-HT7 receptor antagonists” (Laboratorios Del Dr. Esteve, S.A., priority 2004, dated 2011).
# Structures can show the parent of a compound that is named as a salt.
# Molecular target: T1, Cloned Human Serotonin Receptor, Subtype 7 (h5HT7) (Homo sapiens, UniProt P34969)
# T1 construct: purchased PerkinElmer 6120512; host or cells: CHO cells (membranes coated on Basic FlashPlate SMP200)
# Assay: Radioligand binding assay, cloned human serotonin receptor subtype 7 (h5HT7) expressed in CHO cells, [125I]LSD, Flashplate
# Conditions: radioligand [125I]LSD 0.82 nM, room temperature, 240 minutes, triplicate determinations, read-out: 5-HT7 IC-50
# Method: Biological Assays Radioligand Binding
# Radioligand binding assays were performed using the Cloned Human Serotonin Receptor, Subtype 7 (h5HT7), expressed in CHO cells, coated on Flashplate (Basic FlashPlate Cat.: SMP200) from PerkinElmer (Cat.: 6120512). The protocol assay was essentially the recommended protocol in the Technical Data Sheet by PerkinEmer Life and Analytical Sciences. The Mass membrane protein/well was typically 12 μg and the Receptor/well was about 9-10 fmoles. The Flashplate were let equilibrate at room temperature for one hour before the addition of the components of the assay mixture. The binding buffer was: 50 mM Tris-HCl, pH 7.4, containing 10 mM MgCl2, 0.5 mM EDTA and 0.5% BSA. The radioligand was [^125I]LSD at a final concentration of 0.82 nM. Nonspecific binding was determined with 50 μM of Clozapine. The assay volume was 25 μl. TopSeal-A were applied onto Flashplate microplates and they were incubated at room temperature for 240 minutes in darkness. The radioactivity were quantified by liquid scintillation spectrophotometry (Wallac 1450 Microbeta Trilux) with a count delay of 4 minutes prior to counting and a counting time of 30 seconds per well. Competition binding data were analyzed by using the LIGAND program (Munson and Rodbard, LIGAND: A versatile, computerized approach for characterization of ligand-binding systems. Anal. Biochem. 107: 220-239, 1980) and assays were performed in triplicate determinations for each point.
# T1 sequence (P34969 whole entry): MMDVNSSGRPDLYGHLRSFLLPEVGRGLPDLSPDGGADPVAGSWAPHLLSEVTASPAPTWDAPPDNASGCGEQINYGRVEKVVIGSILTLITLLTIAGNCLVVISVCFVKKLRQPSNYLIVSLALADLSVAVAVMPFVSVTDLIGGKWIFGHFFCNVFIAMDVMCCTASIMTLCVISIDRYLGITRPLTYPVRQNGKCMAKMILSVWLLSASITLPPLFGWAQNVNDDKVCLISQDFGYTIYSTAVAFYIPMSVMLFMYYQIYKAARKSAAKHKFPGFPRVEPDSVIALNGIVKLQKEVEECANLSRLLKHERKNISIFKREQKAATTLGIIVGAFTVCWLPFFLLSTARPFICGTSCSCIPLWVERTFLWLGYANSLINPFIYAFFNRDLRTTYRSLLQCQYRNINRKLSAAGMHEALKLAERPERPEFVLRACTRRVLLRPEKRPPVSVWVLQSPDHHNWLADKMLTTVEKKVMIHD
row,Structure (SMILES),IC50 [nM]
1,"O=S(=O)(c1cc(Cl)c(F)cc1F)N1CCC(CN2CCc3ccccc3C2)CC1 [Compound 1, 2-[1-(5-Chloro-2,4-difluoro-benzenesulfonyl)-piperidin-4-ylmethyl]-1,2,3,4-tetrahydroisoquinoline hydrochloride]",70.2
2,"O=S(=O)(c1cc(F)c(F)cc1Cl)N1CCC(CN2CCc3ccccc3C2)CC1 [Compound 6, 2-[1-(2-Chloro-4,5-difluoro-benzene-sulfonyl)-piperidin-4-ylmethyl]-1,2,3,4-tetrahydroisoquinoline hydrochloride]",18.2 ± 3.7
3,"COc1cc2c(cc1OC)CN(CC1CCN(S(=O)(=O)c3ccccc3Cl)CC1)CC2 [Compound 77, 2-[1-(2-Chlorobenzene-sulfonyl)-piperidin-4-ylmethyl]-6,7-dimethoxy-1,2,3,4-tetrahydroisoquinoline hydrochloride]",41.8
4,"COc1cc2c(cc1OC)CN(CC1CCN(S(=O)(=O)c3cc(Cl)ccc3Cl)CC1)CC2 [Compound 85, 2-[1-(2,5-Dichloro-benzenesulfonyl)-piperidin-4-ylmethyl]-6,7-dimethoxy-1,2,3,4-tetrahydro-isoquinoline hydrochloride]",60.7

# Results, then the compound that gave them:
row,IC50 [nM],Structure (SMILES)
1,28.4 ± 18.2,"O=S(=O)(c1ccccc1Cl)N1CCC(CN2CCc3ccccc3C2)CC1 [Compound 2, 2-[1-(2-Chloro-benzenesulfonyl)-piperidin-4-ylmethyl]-1,2,3,4-tetrahydro-isoquinoline hydrochloride]"
2,76.4,"O=S(=O)(c1cc(Cl)ccc1Cl)N1CCC(CN2CCc3ccccc3C2)CC1 [Compound 3, 2-[1-(2,5-Dichloro-benzenesulfonyl)-piperidin-4-ylmethyl]-1,2,3,4-tetrahydro-isoquinoline hydrochloride]"
3,63,"Cc1cccc(S(=O)(=O)N2CCC(CN3CCc4ccccc4C3)CC2)c1 [Compound 5, 2-[1-(Toluene-3-sulfonyl)-piperidin-4-ylmethyl]-1,2,3,4-tetrahydroisoquinoline hydrochloride]"
4,36.1 ± 16,"Cc1cc(S(=O)(=O)N2CCC(CN3CCc4ccccc4C3)CC2)c(C)cc1Cl [Compound 16, 2-[1-(4-Chloro-2,5-dimethyl-benzenesulfonyl)-piperidin-4-ylmethyl]-1,2,3,4-tetrahydroisoquinoline hydrochloride]"
5,16.8 ± 8,"O=S(=O)(c1ccccc1Br)N1CCC(CN2CCc3ccccc3C2)CC1 [Compound 22, 2-[1-(2-Bromo-benzenesulfonyl)-piperidin-4-ylmethyl]-1,2,3,4-tetrahydro-isoquinoline hydrochloride]"
6,83.4,"O=S(=O)(c1cccc2ccccc12)N1CCC(CN2CCc3ccccc3C2)CC1 [Compound 23, 2-[1-(Naphtalene-1-sulfonyl)-piperidin-4-ylmethyl]-1,2,3,4-tetrahydroisoquinoline hydrochloride]"
